This experiment relates to influenza virus (H3N2). In words: antiviral efficacy on MDCK cell line in vitro. To be noted: MDCK cells infected with influenza virus (H3N2); test compound present from 1 hour after viral infection until end of culture; over a wide concentration range (FIG.3-5). Type of experiment: cell-based. As to the method:
For influenza virus, MDCK cells that were permissive of viral replication were grown up to sufficient numbers in growth media with supplements. Once MDCK cells were confluent they were seeded into 96 well flat-bottomed plates (2x10^4 cells/well), incubated overnight and then infected with the influenza virus (H3N2) at the correct concentration and incubated in order to allow productive infection of the MDCK cells.
After the initial seeding of cells overnight (200 µl/well), the medium was removed and influenza viral infection performed in a smaller volume (25µl/well) for 1 hour. After the 1 hour infection, the viral inoculum was removed and replaced with medium (200p1/well) containing test compound. Thus, disodium 2,6-dimethyl-1,4-dihydropyridine-3,5-bis(carbonyloxyacetate) and its derivatives - disodium 2,4,6-trimethyl-1,4-dihydropyridine-3,5-bis-carbonyloxyacetate and disodium 4-ethyl-2,6-dimethyl-1,4-dihydropyridine-3,5-bis(carbonyloxyacetate) (compounds with general formula I), were presented from 1 hour after viral infection until the end of the culture period.
The antiviral efficacy of disodium 2,6-dimethyl-1,4-dihydropyridine-3,5-bis(carbonyloxyacetate) and its derivatives - disodium 2,4,6-trimethyl-1,4-dihydropyridine-3,5-bis(carbonyloxyacetate) and disodium 4-ethyl-2,6-dimethyl-1,4-dihydropyridine-3,5-bis(carbonyloxyacetate) (compounds with general formula I), were compared with already known medicaments, such as 1-methyl-2-phenylthiomethyl-3-carbethoxy-4-dimethylaminomethyl-5-oxybromoindole monohydrate hydrochloride and Oseltamivir, and results were represented in FIG.1., FIG.2., FIG.3., FIG.4. and FIG.5.
Take `CC1=C(C(=O)OCC(=O)O)C(C)C(C(=O)OCC(=O)O)=C(C)N1` [disodium 2,4,6-trimethyl-1,4-dihydropyridine-3,5-bis-carbonyloxyacetate]: the antiviral efficacy result is given as “effective against influenza”.

For `CC1=C(C(=O)OCC(=O)O)CC(C(=O)OCC(=O)O)=C(C)N1` [disodium 2,6-dimethyl-1,4-dihydropyridine-3,5-bis(carbonyloxyacetate)], the antiviral efficacy entry is on record as “effective against influenza”.

For the molecule `CCC1C(C(=O)OCC(=O)O)=C(C)NC(C)=C1C(=O)OCC(=O)O` [disodium 4-ethyl-2,6-dimethyl-1,4-dihydropyridine-3,5-bis(carbonyloxyacetate)], the antiviral efficacy result was “effective against influenza”.

For the origin of these results see patent EP2578218A1, “Antiviral efficacy of disodium 2,6-dimethyl-1,4-dihydropyridine-3,5-bis(carbonyloxyacetate) and its derivatives” (Grindeks, A Joint Stock Company, priority 2011, dated 2013).
